Test results reported in paper PMC2666621 (Current drug metabolism, 2009).

Experiments:
[1] = molecular target: T1, CHLαGcT (cholesterol α-glucosyltransferase; HP0421) (Helicobacter pylori, UniProt O25175); test: product inhibition, Lineweaver-Burk; assay type: biochemical; conditions: varied UDP-Glc; competitive with UDP-Glc
[2] = molecular target: T1, CHLαGcT (cholesterol α-glucosyltransferase; HP0421); test: glucosyltransferase inhibition assay; assay type: biochemical; conditions: UDP-Glc 3.6 μM, cholesterol 400 μM (so in the source); cited from earlier work

| Structure (SMILES) | product inhibition, Lineweaver-Burk [1] | IC50 [2] |
| --- | --- | --- |
| O=c1ccn([C@@H]2O[C@H](COP(=O)(O)OP(=O)(O)O)[C@@H](O)[C@H]2O)c(=O)[nH]1 [UDP] | inhibition profile of UDP in the presence of UDP-Glc intersected at the Y-axis, indicating competitive inhibition |  |
| CC(=O)N[C@H]1[C@H](OC[C@H]2O[C@H](Oc3ccc([N+](=O)[O-])cc3)[C@H](NC(C)=O)[C@@H](O[C@@H]3O[C@H](CO)[C@H](O)[C@H](O)[C@H]3O)[C@H]2O)O[C@H](CO)[C@@H](O)[C@@H]1O [GlcNAcβ1→6(Galβ1→3)GalNAcα1→p-nitrophenol] |  | 2210 µM |
| CCCCCCCCO[C@H]1O[C@H](CO)[C@H](O)[C@H](O[C@@H]2O[C@H](CO)[C@H](O)[C@H](O[C@]3(C(=O)O)C[C@H](O)[C@@H](NC(C)=O)[C@H]([C@H](O)[C@H](O)CO)O3)[C@H]2O)[C@H]1NC(C)=O [NeuAcα2→3Galβ1→3GalNAcα1→octyl] |  | 1090 µM |
| CCCCCCCCO[C@H]1O[C@H](CO[C@@H]2O[C@H](CO)[C@@H](O[C@@H]3O[C@H](CO)[C@H](O[C@H]4O[C@H](CO)[C@@H](O)[C@H](O)[C@H]4NC(C)=O)[C@H](O)[C@H]3O)[C@H](O)[C@H]2NC(C)=O)[C@H](O)[C@H](O[C@@H]2O[C@H](CO)[C@H](O)[C@H](O)[C@H]2O)[C@H]1NC(C)=O [GlcNAcα1→4Galβ1→4GlcNAcβ1→6(Galβ1→3)GalNAcα1→octyl] |  | 470 µM |
| CC(=O)N[C@H]1[C@@H](Oc2ccc([N+](=O)[O-])cc2)O[C@H](CO)[C@H](O)[C@@H]1O[C@@H]1O[C@H](CO)[C@H](O)[C@H](O)[C@H]1O [Galβ1→3GalNAcα1→p-nitrophenol] |  | 7490 µM |
